Source: patent US8410153B2, “Naphthalene isoxazoline invertebrate pest control agents” (E.I. du Pont de Nemours and Company, priority 2007, dated 2013)

Experiments:
Type in all cases: in vivo
[1] = system: fall armyworm (Spodoptera frugiperda); assay: Test B: control of fall armyworm on corn (maize) plant, foliar spray; settings: sprayed at 50 ppm
How it was run: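 4-5-day-old corn plants pre-infested with 10-15 1-day-old larvae on insect diet, then sprayed with compound at 50 ppm in 10% acetone/90% water with 300 ppm surfactant, three replicates. Held 6 days at 25° C, 70% RH; feeding damage assessed visually and mortality rated.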

[2] = system: diamondback moth (Plutella xylostella); assay: Test A: control of diamondback moth on radish plant, foliar spray; settings: sprayed at 50 ppm, held 6 days
How it was run: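 Radish plants 12–14 days old, pre-infested with about 50 neonate larvae, sprayed at 50 ppm in 10% acetone/water with 300 ppm X-77 surfactant; three replicates. After 6 days at 25° C and 70% RH, feeding damage was scored visually and mortality counted.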

[3] = system: western flower thrips (Frankliniella occidentalis); assay: Test E: control of western flower thrips on Soleil bean plant, contact and/or systemic; settings: held 6 days
How it was run: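 5–7-day-old Soleil bean plants were sprayed at 250 or 50 ppm in 10% acetone/90% water with 300 ppm X-77 surfactant, three replicates. After drying 1 h, 22–27 adult thrips were added per unit. Mortality and plant damage were rated after 6 days at 25 °C and 45–55% RH.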

Measured: levels of control efficacy (20% or less feeding damage or 80% or more mortality)

CSCCNC(=O)c1ccc(C2=NOC(c3cc(Br)cc(Br)c3)(C(F)(F)F)C2)c2ccccc12 (stereo not drawn) [Compound 21]
very good to excellent: [1] | [2] | [3]; sprayed at 50 ppm | [3]; sprayed at 250 ppm

CCC(CC)NC(=O)CNC(=O)c1ccc(C2=NOC(c3cc(Cl)cc(Cl)c3)(C(F)(F)F)C2)c2ccccc12 (stereo not drawn) [Compound 25]
very good to excellent: [1] | [2] | [3]; sprayed at 250 ppm

CCNC(=O)C(C)NC(=O)c1ccc(C2=NOC(c3cc(C(F)(F)F)cc(C(F)(F)F)c3)(C(F)(F)F)C2)c2ccccc12 (stereo not drawn) [Compound 88]
very good to excellent: [1] | [2] | [3]; sprayed at 50 ppm | [3]; sprayed at 250 ppm

CCS(=O)(=O)CCNC(=O)c1ccc(C2=NOC(c3cc(C(F)(F)F)cc(C(F)(F)F)c3)(C(F)(F)F)C2)c2ccccc12 (stereo not drawn) [Compound 99]
very good to excellent: [1] | [2] | [3]; sprayed at 50 ppm

CC(NC(=O)c1ccc(C2=NOC(c3cc(Br)cc(C(F)(F)F)c3)(C(F)(F)F)C2)c2ccccc12)C(=O)NCC(F)(F)F (mixture of isomers) [Compound 140]
very good to excellent: [1] | [2] | [3]; sprayed at 50 ppm

CC(NC(=O)c1ccc(C2=NOC(c3cc(C(F)(F)F)cc(C(F)(F)F)c3)(C(F)(F)F)C2)c2ccccc12)C(=O)NCC(F)(F)F (stereo not drawn) [Compound 85]
very good to excellent: [1] | [2] | [3]; sprayed at 50 ppm | [3]; sprayed at 250 ppm

CC(C)(O)CNC(=O)c1ccc(C2=NOC(c3cccc(C(F)(F)F)c3)(C(F)(F)F)C2)c2ccccc12 (racemic) [Compound 43]
very good to excellent: [1] | [2] | [3]; sprayed at 250 ppm

CNC(=O)C(C)NC(=O)c1ccc(C2=NOC(c3cc(C(F)(F)F)cc(C(F)(F)F)c3)(C(F)(F)F)C2)c2ccccc12 (stereo not drawn) [Compound 86]
very good to excellent: [1] | [2] | [3]; sprayed at 50 ppm | [3]; sprayed at 250 ppm

CC(C)(C)CNC(=O)CNC(=O)c1ccc(C2=NOC(c3cc(Cl)cc(C(F)(F)F)c3)(C(F)(F)F)C2)c2ccccc12 (stereo not drawn) [Compound 120]
very good to excellent: [1] | [2] | [3]; sprayed at 50 ppm | [3]; sprayed at 250 ppm

CS(=O)(=O)CCNC(=O)c1ccc(C2=NOC(c3cc(Br)cc(C(F)(F)F)c3)(C(F)(F)F)C2)c2ccccc12 (racemic) [Compound 54]
very good to excellent: [1] | [2] | [3]; sprayed at 50 ppm | [3]; sprayed at 250 ppm
